US20090221598A1, “Use of Sanglifehrin in HCV” (priority 2005, published 2009)

Experiments:
FK binding protein = assay: Standard test for FK binding protein binding activity; conditions: standard tests
calcineurin = assay: Standard test for calcineurin activity; type: biochemical; conditions: standard tests
[1] = tested on: human monocytic cell line THP1; assay: Cytotoxicity, MTT read-out; type: cell-based
Description: Cytotoxicity is determined using the human monocytic cell line THP1 (5×10^4 cells/well) which are incubated in the presence of IFNgamma (100 U/ml) and LPS (5 microgram/ml) plus test compound (up to 10 micromolar) for 24 to 72 h at 37° C. Living cells are quantified using the colourimetric read-out MTT which measures mitochondrial dehydrogenase enzymatic activity in living cells (Mossman 1983). Macrolides of the invention, e.g. compounds of formula IX and their pharmaceutically acceptable salts, e.g. Sanglifehrins A, B, C and D, have IC50 of about 1000-5000 nM after 24 h incubation in this assay. (Mossman T. J. (1983), Rapid calorimetric assay for cellular growth and survival: application to proliferation and cytotoxic assays, J. Imm. Methods, 65, 55-63).

| Substance | FK binding protein binding activity (FK binding protein) | inhibition of calcineurin activity (calcineurin) | IC50 [1] [nM] |
| --- | --- | --- | --- |
| Sanglifehrin A | do not have FK binding protein binding activity | do not inhibit calcineurin activity | – |
| Sanglifehrin B | do not have FK binding protein binding activity | do not inhibit calcineurin activity | 1000 to 5000 |
